Reference: patent publication US9290447B2, “(20R) and (20S)-24-(p-toluenesulfonyloxy)-25,26,27-trinorvitamin D3 analogs and their uses” (Wisconsin Alumni Research Foundation, priority 2011, dated 2016)

Experiments:
HL-60 cells = test: HL-60 differentiation (nitro blue tetrazolium reduction); type: cell-based, human; settings: FIG. 2
Description: The study drugs were dissolved in ethanol and the concentrations determined using UV spectrophotometry. Serial dilutions were prepared so that a range of drug concentrations could be tested without changing the final concentration of ethanol (≦0.2%) present in the cell cultures.
Human promyelocytic leukemia (HL60) cells were grown in RPMI-1640 medium containing 10% fetal bovine serum. The cells were incubated at 37° C. in the presence of 5% CO2.
HL60 cells were plated at 1.2×10^5 cells/ml. Eighteen hours after plating, cells in duplicate were treated with drug. Four days later, the cells were harvested and a nitro blue tetrazolium reduction assay was performed (Collins et al., 1979; J. Exp. Med. 149:969-974). The percentage of differentiated cells was determined by counting a total of 200 cells and recording the number that contained intracellular black-blue formazan deposits. Verification of differentiation to monocytic cells was determined by measuring phagocytic activity (data not shown).

[1] = system: 24-hydroxylase (24Ohase) gene promoter; test: In vitro transcription assay (24-hydroxylase promoter luciferase reporter in ROS 17/2.8 bone cells); type: cell-based; settings: FIG. 3
Description: Cells were given a range of doses. Sixteen hours alter dosing the cells were harvested and luciferase activities were measured using a luminometer. RLU=relative luciferase units.

vitamin D-deficient rats [2] = test: Bone calcium mobilization (serum calcium); type: in vivo, rat; settings: rats on 0.02% Ca diet, FIG. 9
Description: (§1) Male, weanling Sprague-Dawley rats were placed on Diet 11 (Suda et al, J. Nutr. 100:1049, 1970) (0.47% Ca)+AEK oil for one week followed by Diet 11 (0.02% Ca)+AEK oil for 3 weeks. The rats were then switched to the same diet containing 0.47% Ca for one week followed by two weeks on the same diet containing 0.02% Ca. Dose administration began during the last week on 0.02% calcium diet. Four consecutive intraperitoneal (ip) doses were given approximately 24 hours apart. Twenty-four hours after the last dose, blood was collected from the severed neck and the concentration of serum calcium determined by atomic absorption spectrometry as a measure of bone calcium mobilization. The first 10 cm of the intestine was also collected for intestinal calcium transport analysis using the everted gut sac method.

vitamin D-deficient rats [3] = test: Intestinal calcium transport (everted gut sac method); type: in vivo, rat; settings: 4 consecutive ip doses, FIG. 10
Description: as §1

HL-60 leukemia cells = test: Cell viability, HL-60 leukemia cells; type: cell-based, human; settings: four days growth, methylene blue; FIG. 4A/4B
Description: (§2) Various cell lines were plated, administered a range of drug concentrations one time, allowed to grow for four days and then the number of cells present counted and expressed as a percentage of those present in the vehicle control plates. […] The number of live cells was expressed as a percentage of the total present. Each assay was done in duplicate.

[4] = system: H-82 lung carcinoma cells; test: Cell viability, H-82 lung carcinoma cells; type: cell-based; settings: four days growth, methylene blue; FIG. 5A/5B
Description: as §2

[5] = target: T1, full-length recombinant rat vitamin D receptor (Rattus norvegicus, UniProt P13053); test: Vitamin D receptor competitive binding with [3H]-1,25(OH)2D3; settings: compared to 1α,25-dihydroxyvitamin D3; FIG. 1
T1 construct: Full-length recombinant rat receptor was expressed in E. coli; histidine tag (C); made in house; host or cells: E. coli BL21 (DE3) Codon Plus RIL
T1 sequence (P13053 1-423): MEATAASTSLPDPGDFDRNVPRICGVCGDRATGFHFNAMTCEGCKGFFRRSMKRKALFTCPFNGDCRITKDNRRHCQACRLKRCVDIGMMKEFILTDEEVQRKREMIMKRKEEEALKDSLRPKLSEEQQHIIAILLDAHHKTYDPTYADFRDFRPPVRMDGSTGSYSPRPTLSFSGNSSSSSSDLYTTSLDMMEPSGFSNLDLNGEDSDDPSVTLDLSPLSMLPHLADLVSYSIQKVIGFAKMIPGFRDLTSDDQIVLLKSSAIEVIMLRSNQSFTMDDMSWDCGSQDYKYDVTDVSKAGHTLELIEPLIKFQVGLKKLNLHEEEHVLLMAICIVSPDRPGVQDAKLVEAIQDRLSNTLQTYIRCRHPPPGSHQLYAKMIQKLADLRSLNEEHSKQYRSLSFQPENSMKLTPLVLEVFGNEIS
Description: Full-length recombinant rat receptor was expressed in E. coli BL21 (DE3) Codon Plus RIL cells and purified to homogeneity using two different column chromatography systems. The first system was a nickel affinity resin that utilizes the C-terminal histidine tag on this protein. […] Aliquots of the purified protein were quick frozen in liquid nitrogen and stored at −80° C. until use. For use in binding assays, the protein was diluted in TEDK50 (50 mM Tris, 1.5 mM EDTA, pH7.4, 5 mM DTT, 150 mM KCl) with 0.1% Chaps detergent. The receptor protein and ligand concentration was optimized such that no more than 20% of the added radiolabeled ligand was bound to the receptor.
Radiolabeled and unlabeled ligands were added to 100 mcl of the diluted protein at a final ethanol concentration of ≦10%, mixed and incubated overnight on ice to reach binding equilibrium. The following day, 100 mcl of hydroxylapatite slurry (50%) was added to each tube and mixed at 10-minute intervals for 30 minutes. The hydroxylapaptite was collected by centrifugation and then washed three times with Tris-EDTA buffer (50 mM Tris, 1.5 mM EDTA, pH 7.4) containing 0.5% Titron X-100. […] Total binding was determined from the tubes containing only radiolabeled ligand.

[6] = system: DU-145 prostate cancer cells; test: Cell viability, DU-145 prostate cancer cells; type: cell-based; settings: four days growth, methylene blue; FIG. 6
Description: as §2

[7] = system: ROS 17/2.8 bone cancer cells; test: Cell viability, ROS 17/2.8 bone cancer cells; type: cell-based; settings: four days growth, methylene blue; FIG. 7
Description: as §2

[8] = system: OVCAR3 ovarian cancer cells; test: Cell viability, OVCAR3 ovarian cancer cells; type: cell-based; settings: four days growth, methylene blue; FIG. 8
Description: as §2

[9] = Change in body weight of dosed animals; type: in vivo, rat; settings: various doses; FIG. 11
Description: as §1

C=C1/C(=C\C=C2/CCC[C@]3(C)[C@@H]([C@H](C)CCCC(C)(C)O)CC[C@@H]23)C[C@@H](O)C[C@@H]1O [1,25(OH)2D3, 1α,25-dihydroxyvitamin D3, reference compound]
EC50 (HL-60 cells; four days after treatment, read-out: EC50, HL-60 cell differentiation): 2 nM | EC50 ([1]; ROS 17/2.8 cells, 16 h after dosing): 0.1 nM | Bone calcium mobilization (serum calcium) (vitamin D-deficient rats [2]; 4 consecutive ip doses): significant increases in serum calcium | Intestinal calcium transport activity (vitamin D-deficient rats [3]; 260 pmol and 780 pmol doses): significant increase in activity | Viability of HL-60 leukemia cells (HL-60 leukemia cells): does not have any significant effect on the viability | Viability of H-82 lung carcinoma cells [4]: requires a significantly higher dose

C=C1CC[C@H](O)C/C1=C/C=C1\CCC[C@]2(C)[C@@H]([C@H](C)CCCOS(=O)(=O)c3ccc(C)cc3)CC[C@@H]12 [TS-17, (20R)-25,26,27-trinor-24-(p-methylphenylsulfonate)-vitamin D3]
VDR binding activity relative to natural hormone (times less active) [5]: at least 100 times less active | HL-60 cell differentiation (in words) (HL-60 cells): does not promote HL60 differentiation | Transcriptional activity in bone cells (in words) ([1]; until very high doses are administered): lacks any transcriptional activity | Bone calcium mobilization (serum calcium) (vitamin D-deficient rats [2]; 35,100 pmol/day for 4 consecutive days, ip): little or no mobilization of bone calcium | Intestinal calcium transport activity (vitamin D-deficient rats [3]; 35,100 pmol/rat): little to no activity | Viability of HL-60 leukemia cells (HL-60 leukemia cells): kills HL-60 leukemia cells | Viability of H-82 lung carcinoma cells [4]: kills H-82 lung carcinoma cells | Viability of DU-145 prostate cells [6]: does not have any significant effect on the viability | Viability of ROS 17/2.8 bone cancer cells [7]: does not have any significant effect on the viability | Viability of OVCAR3 ovarian cancer cells [8]: does not have any significant effect on the viability | Body weight throughout the test period [9]: substantially maintain their body weight
